Results as given in article PMC10251479, “PROTAC-Induced Glycogen Synthase Kinase 3β Degradation as a Potential Therapeutic Strategy for Alzheimer’s Disease” (ACS Chemical Neuroscience, 2023).
“And” between values parts separate entries of the source, which are not always exact repeats. Identical values can stand only once.

What was measured:
SH-SY5Y cells [1] = assay: Cytotoxicity in SH-SY5Y cells (MTT); format: cell-based, human; conditions: MTT, 24 h treatment, 1.25–40 μM
Description: Human neuronal SH-SY5Y cells (Sigma-Aldrich, St. Louis, MO, USA) were routinely grown in Dulbecco’s modified Eagle’s Medium supplemented with 10% fetal bovine serum, 2 mM l-glutamine, 50 U/mL penicillin, and 50 μg/mL streptomycin at 37 °C in a humidified incubator with […]
Determination of cytotoxicity
(§1) SH-SY5Y cells were seeded in a 96-well plate at 2 × 10^4 cells/well, incubated for 24 h and then […]
for 24 h at 37°C in 5% CO2. The cell viability, in terms of mitochondrial metabolic function, was evaluated by the reduction of 3-(4,5-dimethyl-2-thiazolyl)-2,5-diphenyl-2H-tetrazolium bromide […]
(MTT) to its insoluble formazan. Briefly, the treatment was replaced with MTT in HBSS [0.5 mg/mL] for 2 h at 37°C in 5% CO2. After washing with HBSS, formazan crystals were dissolved in isopropanol. The amount of formazan was measured (570 nm, reference filter 690 nm) using a multilabel plate reader (VICTOR™ X3, PerkinElmer, Waltham, MA, USA). Data are expressed as mean of three independent experiments. […]

GSK-3β protein [2] = target: T1, GSK-3β protein (Homo sapiens, UniProt P49841); assay: GSK-3β degradation by Western blotting in SH-SY5Y cells; format: cell-based; parameters: endogenous in cells; host or cells: SH-SY5Y; conditions: 10 μM, 48 h, Western blotting
Description: Determination of GSK-3β degradation by Western Blotting
At the end of incubation, cells were trypsinized and the cellular pellet was resuspended in complete lysis buffer containing leupeptin (2 µg/mL, Sigma-Aldrich), phenylmethylsulfonyl fluoride (PMSF, 100 µg/mL, Sigma-Aldrich) and a cocktail of protease/phosphatase inhibitors (100×). The protein concentration was determined using the Bradford method (Bio-Rad Laboratories Srl, Hercules, CA, USA). The protein lysates (50 µg per […]
polyacrylamide gels, Bio-Rad Laboratories SrL) and electroblotted onto 0.45 µm nitrocellulose membranes. Membranes were incubated overnight at 4 °C with primary antibody recognizing GSK-3β (1:1000, Cell Signaling Technologies Inc, Danvers, MA, USA). Membranes were then washed with TRIS-buffered saline-T (TBS + 0.05% Tween20), and then incubated with horseradish peroxidase (POD) linked anti-rabbit secondary antibody (1:2000, GE Healthcare, Chicago, IL, USA).
Immunoreactive bands were visualized by enhanced chemiluminescence (ECL, Bio-Rad Laboratories Srl). The same membranes were stripped and reprobed with anti β-actin (1:1000, Sigma-Aldrich). Data were normalized on the β-actin bands and analyzed by densitometry, using the Quantity One software (Bio-Rad Laboratories Srl).[9] […]

GSK-3β protein [3] = target: T1, GSK-3β protein; assay: GSK-3β inhibition in vitro assay (Kinase-Glo luminescent); format: biochemical; parameters: purchased Millipore (Millipore Iberica S.A.U.); conditions: ATP 1 μM, GSM substrate 25 μM, 30 min at 37 °C; mean of at least two determinations in duplicate; read-out: IC50 ± SEM, GSK-3β activity
From the text: N-(2-(2-(2-((2-(2,6-dioxopiperidin-3-yl)-1,3-dioxoisoindolin-4-yl)amino)ethoxy)ethoxy)ethyl)- 4-((2-(naphthalen-1-yl)-3,5-dioxo-1,2,4-thiadiazolidin-4-yl)methyl)benzamide (4). Synthesized […]
GSK-3β inhibition in vitro assay. Human recombinant GSK-3β, prephosphorylated polypeptide substrate and white 96-well plates were purchased from Millipore (Millipore Iberica S.A.U.). Kinase-Glo Luminescent Kinase Assay was obtained from Promega (Promega Biotech Iberica, SL).
Adenosinetriphosphate (ATP) and all other reagents were from Sigma-Aldrich. Assay buffer contained 50 mM 4-(2-hydroxyethyl)-1- piperazineethanesulfonic acid (HEPES) (pH 7.5), 1 mM ethylenediaminetetraacetic acid (EDTA), 1 mM ethylene glycol tetraacetic acid (EGTA), and 15 mM magnesium acetate. The in solution experiments for GSK-3β inhibition analysis were performed by following the method developed by Baki et al.[1] In a typical assay, 10 μL of test compound (dissolved […]
in DMSO at 1 mM concentration and diluted in advance in assay buffer to the desired concentration) and 10 μL (20 ng) of enzyme were added to each well in presence of 20 μL of assay buffer containing […]
After a 30 min incubation time at 37 °C, the enzymatic reaction was stopped by adding 40 μL of Kinase-Glo reagent. Glow-type luminescence was recorded after 10 min using a Victorx3 (PerkinElmer Waltham, MA, USA) plate […]
inhibitory activities were calculated based on maximal kinase (average positive) and luciferase activities (average negative) measured in the absence of inhibitor and in the presence of reference […]
μM), respectively. The linear regression parameters were determined and the IC 50 extrapolated by GraphPad software (version 5.0; GraphPad Software, La Jolla, CA, USA).

SH-SY5Y cells [4] = assay: Neuroprotective effects against CuSO4 in SH-SY5Y cells (MTT); format: cell-based, human; conditions: 1 μM, 24 h, CuSO4 150 μM, MTT
Description: as §1
presence of CuSO4 (150 µM) at 37 °C in 5 % CO2. Cells were also treated with compound 1 (1 µM) for 24 h in the presence of lactacystin (5 µM). At the end of the treatment, the cell viability, in terms of mitochondrial metabolic function, was evaluated by the reduction of 3-(4,5-dimethyl-2-thiazolyl)- 2,5-diphenyl-2H-tetrazolium bromide (MTT) to its insoluble formazan. Briefly, the treatment was replaced with MTT in HBSS [0.5 mg/mL] for 2 h at 37°C in 5% CO2. After washing with HBSS, formazan crystals were dissolved in isopropanol. The amount of formazan was measured (570 nm, reference filter 690 nm) using a multilabel plate reader (VICTOR™ X3, PerkinElmer, Waltham, MA, USA).[10] Data are reported as mean ± SEM of three independent experiments. The neurotoxicity was expressed as a percentage of control cells and calculated by the formula: 100 – ((absorbance of treated

PAMPA-BBB permeation = format: in vitro ADME; conditions: for Papp at 2.75 h: PAMPA, pH 7.4, PBS:EtOH (70:30), 2 h 45 min at 25 °C, porcine brain lipid, mean ± SD of two independent experiments, read-out: Pe (experimental data)
Description: 11. PAMPA BBB permeation studies.
Prediction of the brain penetration was evaluated using a parallel artificial membrane permeability assay (PAMPA).[12] Ten commercial drugs, PBS at pH 7.4, EtOH, and dodecane were purchased from Sigma- Aldrich, Acros organics, Merck, and Fluka. The porcine polar brain lipid (PBL) was from Avanti Polar Lipids. The donor plate was a 96-well filtrate plate (Multiscreen® IP Sterile Plate PDVF […]
both from Millipore. Filter PDVF membrane units (diameter 30 mm, pore size 0.45 µm) from Symta were used to filter the samples. A 96-well plate UV reader (Biteck Instruments, Synergy H4 Hibrid Reader) was used for the UV measurements.
12 mg of promazine) were dissolved in 1 mL of EtOH. 100 µL of this compound stock solution were taken and 1400 µL of EtOH and 3500 µL of PBS were added to reach 30% of EtOH concentration in the experiment. These solutions were filtered. The acceptor 96-well microplate was filled with 180 µL of PBS/EtOH (70/30). The donor 96-well plate was coated with 4 µL of porcine brain lipid in dodecane (20 mg mL-1) and after 5 min, 180 µL of each compound solution was added. 1 mg of […]
of EtOH and 1.4 mL of PBS, filtered and then added to the donor 96-well plate. Then the donor plate was carefully put on the acceptor plate to form a “sandwich”, which was left undisturbed for 2 h and 45 min at 25 °C. During this time the compounds diffused from the donor plate through the brain lipid membrane into the acceptor plate. After incubation, the donor plate was removed. UV plate reader determined the concentration of compounds and commercial drugs in the acceptor and the donor plates. Every sample was analyzed at three to five wavelengths (between 200 and 500 nm), in 3 wells and in two independent runs. Results are given as the mean and the average of the two runs is reported. Quality control compounds (previously mentioned) of known BBB permeability were included in each experiment to validate the analysis set.

[5] = commercial drugs of the validation study; ref [12]; cited from earlier work
[6] = classified from experimental Pe

T1 sequence (P49841 whole entry): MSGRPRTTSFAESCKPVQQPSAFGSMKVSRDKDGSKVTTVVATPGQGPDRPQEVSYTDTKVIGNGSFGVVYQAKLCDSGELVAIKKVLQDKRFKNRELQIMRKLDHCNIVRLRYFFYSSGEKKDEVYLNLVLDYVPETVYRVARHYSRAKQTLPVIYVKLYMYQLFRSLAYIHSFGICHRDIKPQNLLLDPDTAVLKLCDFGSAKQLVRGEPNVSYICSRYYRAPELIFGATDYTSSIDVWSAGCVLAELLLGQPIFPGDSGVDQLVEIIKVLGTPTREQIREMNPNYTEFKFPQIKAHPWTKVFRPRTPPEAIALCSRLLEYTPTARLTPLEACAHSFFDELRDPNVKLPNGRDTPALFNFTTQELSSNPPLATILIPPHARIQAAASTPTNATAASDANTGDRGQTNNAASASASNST

SMILES | Papp at 2.75 h (PAMPA-BBB permeation) [×10⁻⁶ cm/s] | concentration at which cytotoxicity was shown (SH-SY5Y cells [1]) | total GSK-3β protein level (GSK-3β protein [2]) | other results
O=C1CCC(N2C(=O)c3cccc(NCCCOCCCCOCCCNC(=O)c4ccc(Cn5c(=O)sn(-c6cccc7ccccc67)c5=O)cc4)c3C2=O)C(=O)N1 (stereo not drawn) [Compound 2] |  | ≥ 20 µM | did not induce GSK-3β degradation | IC50 (GSK-3β protein [3]): 79.3 nM and 79 nM
O=c1sn(-c2cccc3ccccc23)c(=O)n1Cc1ccccc1 [tideglusib, reference compound] |  |  |  | neurotoxicity induced by CuSO4 (SH-SY5Y cells [4]): significantly counteracted the neurotoxicity induced by CuSO4
Cn1c(=O)c2c(ncn2C)n(C)c1=O [Caffeine, reference compound] | 7.29 ± 0.57 |  |  | 
O=C1CCC(N2C(=O)c3cccc(NCCOCCOCCNC(=O)c4ccc(Cn5c(=O)sn(-c6cccc7ccccc67)c5=O)cc4)c3C2=O)C(=O)N1 (stereo not drawn) [Compound 4, N-(2-(2-(2-((2-(2,6-dioxopiperidin-3-yl)-1,3-dioxoisoindolin-4-yl)amino)ethoxy)ethoxy)ethyl)-4-((2-(naphthalen-1-yl)-3,5-dioxo-1,2,4-thiadiazolidin-4-yl)methyl)benzamide] |  | higher than 20 μM | did not induce GSK-3β degradation | IC50 (GSK-3β protein [3]): 178 nM
O=C(Cn1cc(C2=C(c3ccc(Cl)cc3Cl)C(=O)NC2=O)c2ccccc21)NCCOCCOCCNc1cccc2c1C(=O)N(C1CCC(=O)NC1=O)C2=O (stereo not drawn) [Compound 3] | 20.7 ± 3.93 | higher than 20 μM | significantly decreased the total level of GSK-3β protein | BBB permeability classification (PAMPA-BBB permeation; [6]): predicted to cross the BBB; Prediction (penetration in the CNS) (PAMPA-BBB permeation; [6]): CNS + (CNS + (green) for P e > 15.78 × 10−6 cm s−1); IC50 (GSK-3β protein [3]): 457 ± 99 nM
Cn1cc(C2=C(c3ccc(Cl)cc3Cl)C(=O)NC2=O)c2ccccc21 [SB-216763, reference compound] |  | higher than 20 μM | did not modify the basal level of GSK-3β protein | neurotoxicity induced by CuSO4 (SH-SY5Y cells [4]): significantly counteracted the neurotoxicity induced by CuSO4

Continued, in another order:

Papp at 2.75 h (PAMPA-BBB permeation) [×10⁻⁶ cm/s] | SMILES | concentration at which cytotoxicity was shown (SH-SY5Y cells [1]) | total GSK-3β protein level (GSK-3β protein [2]) | other results
36.5 ± 5.35 | CNCCCN1c2ccccc2CCc2ccccc21 [Desipramine, reference compound] |  |  | 
10.3 ± 0.95 | CCn1cc(C(=O)O)c(=O)c2cc(F)c(N3CCNCC3)nc21 [Enoxacin, reference compound] |  |  | 
12.8 ± 0.63 | CN1C(C(=O)Nc2ccccn2)=C(O)c2ccccc2S1(=O)=O [Piroxicam, reference compound] |  |  | Pe (literature data) [5]: 2.5 10-6 cm s-1
5.37 ± 0.17 | CCn1cc(C(=O)O)c(=O)c2cc(F)c(N3CCNCC3)cc21 [Norfloxacin, reference compound] |  |  | 
24.2 ± 0.89 | CN(C)CCCN1c2ccccc2Sc2ccccc21 [Promazine, reference compound] |  |  | Pe (literature data) [5]: 8.8 10-6 cm s-1
